“Also recorded” adds a separate entry of the source. Bridge positions count the residues as written; N and C are the ends. Square brackets hold non-standard residues; d marks the D form. Ends that are not written are not given here. Peptide text beside a SMILES is read from it. Nle = CCCC[C@H](N)C(=O)O

Assay [1] can be described thus: Relief of inflammation on administration. It counts as in vivo. The settings on record: administration of the peptide.
The subject of assay [2] is ACTH and β-endorphin secretion. The settings on record: background statements; in vitro and in vivo or iv; cited from earlier work.
For assay [3] the following is noted: background statements; injected peripherally or iv, mammals; cited from earlier work.
For assay [4] the following is noted: background statement; cited from earlier work.

Take `CCCC[C@H](NC(=O)[C@H](CCCCN)NC(=O)[C@H](CCCNC(=N)N)NC(=O)[C@H](CC(C)C)NC(=O)[C@H](CC(C)C)NC(=O)[C@H](CCC(=O)O)NC(=O)[C@@H](CC(C)C)NC(=O)[C@H](CO)NC(=O)[C@H](CC(C)C)NC(=O)[C@H](CC(=O)O)NC(=O)[C@@H](NC(=O)[C@H](CO)NC(=O)[C@@H](NC(=O)[C@H]1CCCN1C(=O)[C@@H]1CCCN1C(C)=O)[C@@H](C)CC)[C@@H](C)CC)C(=O)N[C@H](C(=O)N[C@@H](CCC(=O)O)C(=O)N[C@H](C(=O)N[C@@H](CCC(=O)O)C(=O)N[C@@H](CCCCN)C(=O)N[C@@H](CCC(N)=O)C(=O)N[C@@H](CCC(=O)O)C(=O)N[C@@H](CCCCN)C(=O)N[C@@H](CCC(=O)O)C(=O)N[C@@H](CCCCN)C(=O)N[C@@H](CCC(N)=O)C(=O)N[C@H]1CCC(=O)NCCCC[C@@H](C(=O)N[C@@H](CC(N)=O)C(=O)N[C@@H](CCCNC(=N)N)C(=O)N[C@@H](CC(C)C)C(=O)N[C@@H](CC(C)C)C(=O)N[C@@H](CC(C)C)C(=O)N[C@@H](CC(=O)O)C(=O)N[C@H](C(=O)N[C@H](C(N)=O)[C@@H](C)CC)[C@@H](C)O)NC(=O)[C@@H](Cc2c[nH]cn2)NC(=O)[C@H](C)NC1=O)[C@@H](C)CC)[C@@H](C)CC` [Example 8 B, (cyclo 29-32)[Ac-Pro^3, D-Pro^4, D-Leu^11, Nle^17, Glu^29, D-His^31, Lys^32]-sauvagine(3-40)] (Ac-P[dP]ISIDLS[dL]ELLRK[Nle]IEIEKQEKEKQEA[dH]KNRLLLDTI-NH2; lactam 27-30): the “relief of inflammation, in words” value in assay [1] is “relieves inflammation”.

For `CCCC[C@H](NC(=O)[C@H](CCC(=O)O)NC(=O)[C@H](CC(C)C)NC(=O)[C@H](CCCC)NC(=O)[C@H](CCC(=O)O)NC(=O)[C@H](CCCNC(=N)N)NC(=O)[C@H](CC(C)C)NC(=O)[C@H](CC(C)C)NC(=O)[C@H](Cc1c[nH]cn1)NC(=O)[C@@H](Cc1ccccc1)NC(=O)[C@@H](NC(=O)[C@H](CC(C)C)NC(=O)[C@H](CC(=O)O)NC(=O)[C@H](CC(C)C)NC(=O)[C@H](CO)NC(=O)[C@@H](NC(=O)[C@H]1CCCN1C(=O)[C@@H]1CCCN1C(C)=O)[C@@H](C)CC)[C@@H](C)O)C(=O)N[C@@H](C)C(=O)N[C@@H](CCCCN)C(=O)N[C@@H](C)C(=O)N[C@@H](CCC(=O)O)C(=O)N[C@@H](CCC(N)=O)C(=O)N[C@@H](CCC(=O)O)C(=O)N[C@@H](C)C(=O)N[C@@H](CCC(=O)O)C(=O)N[C@H]1CCC(=O)NCCCC[C@@H](C(=O)N[C@@H](CC(N)=O)C(=O)N[C@@H](CCCNC(=N)N)C(=O)N[C@@H](CC(C)C)C(=O)N[C@@H](CC(C)C)C(=O)N[C@@H](CC(C)C)C(=O)N[C@@H](CCC(=O)O)C(=O)N[C@@H](CCC(=O)O)C(=O)N[C@@H](C)C(N)=O)NC(=O)[C@@H](Cc2c[nH]cn2)NC(=O)[C@H](C)NC1=O` [Example 8 C, (cyclo 30-33)[Ac-Pro^4, D-Pro^5, D-Phe^12, Nle^18,21, Glu^30, D-His^32, Lys^33]-α-helical CRF(4-41)] (Ac-P[dP]ISLDLT[dF]HLLRE[Nle]LE[Nle]AKAEQEAEEA[dH]KNRLLLEEA-NH2; lactam 27-30), in assay [1], the “relief of inflammation, in words” value is recorded as “relieves inflammation”.

Turning to `CCCC[C@H](NC(=O)[C@H](CCC(=O)O)NC(=O)[C@@H](NC(=O)[C@H](CCCC)NC(=O)[C@H](CC(N)=O)NC(=O)[C@H](CCCNC(=N)N)NC(=O)[C@H](CC(C)C)NC(=O)[C@H](CC(C)C)NC(=O)[C@H](Cc1c[nH]cn1)NC(=O)[C@@H](Cc1ccccc1)NC(=O)[C@@H](NC(=O)[C@H](CC(C)C)NC(=O)[C@H](CC(=O)O)NC(=O)[C@@H](NC(=O)[C@H](CO)NC(=O)[C@@H](NC(=O)[C@H]1CCCN1C(=O)[C@@H]1CCCN1C(C)=O)[C@@H](C)CC)[C@@H](C)CC)[C@@H](C)O)[C@@H](C)CC)C(=O)N[C@@H](C)C(=O)N[C@@H](CCCNC(=N)N)C(=O)N[C@H](C(=O)N[C@@H](CCC(=O)O)C(=O)N[C@@H](CC(N)=O)C(=O)N[C@@H](CCC(=O)O)C(=O)N[C@@H](CCCNC(=N)N)C(=O)N[C@@H](CCC(=O)O)C(=O)N[C@H]1CCC(=O)NCCCC[C@@H](C(=O)N[C@@H](CC(N)=O)C(=O)N[C@@H](CCCNC(=N)N)C(=O)N[C@@H](CCCCN)C(=O)N[C@@H](Cc2ccc(O)cc2)C(=O)N[C@@H](CC(C)C)C(=O)N[C@@H](CC(=O)O)C(=O)N[C@@H](CCC(=O)O)C(=O)N[C@H](C(N)=O)C(C)C)NC(=O)[C@@H](Cc2c[nH]cn2)NC(=O)[C@H](C)NC1=O)[C@@H](C)CC` [Example 8 E, (cyclo 30-33)[Ac-Pro^4, D-Pro^5, D-Phe^12, Nle^18,21, Glu^30, D-His^32, Lys^33]-sucker urotensin(4-41)] (Ac-P[dP]ISIDLT[dF]HLLRN[Nle]IE[Nle]ARIENEREEA[dH]KNRKYLDEV-NH2; lactam 27-30), the “relief of inflammation, in words” value in assay [1] was “relieves inflammation”.

As to `CC[C@H](C)[C@H](NC(=O)[C@@H](NC(=O)[C@H](CC(=O)O)NC(=O)[C@H](CC(C)C)NC(=O)[C@H](CC(C)C)NC(=O)[C@H](CC(C)C)NC(=O)[C@H](CCCNC(=N)N)NC(=O)[C@H](CC(N)=O)NC(=O)[C@H](CC(N)=O)NC(=O)[C@H](C)NC(=O)[C@H](C)NC(=O)[C@H](CCC(N)=O)NC(=O)[C@H](CCC(N)=O)NC(=O)[C@H](CCCCN)NC(=O)[C@H](CCC(=O)O)NC(=O)[C@H](CCCCN)NC(=O)[C@H](CCC(=O)O)NC(=O)[C@H](CCC(N)=O)NC(=O)[C@H](CCCCN)NC(=O)[C@H](CCC(=O)O)NC(=O)[C@@H](NC(=O)[C@H](CCC(=O)O)NC(=O)[C@@H](NC(=O)[C@H](CCSC)NC(=O)[C@H](CCCCN)NC(=O)[C@H](CCCNC(=N)N)NC(=O)[C@H](CC(C)C)NC(=O)[C@H](CC(C)C)NC(=O)[C@H](CCC(=O)O)NC(=O)[C@H](CC(C)C)NC(=O)[C@H](CO)NC(=O)[C@H](CC(C)C)NC(=O)[C@H](CC(=O)O)NC(=O)[C@@H](NC(=O)[C@H](CO)NC(=O)[C@@H](NC(=O)[C@@H]1CCCN1C(=O)[C@@H]1CCCN1C(=O)CNC(=O)[C@@H]1CCC(=O)N1)[C@@H](C)CC)[C@@H](C)CC)[C@@H](C)CC)[C@@H](C)CC)[C@@H](C)O)C(N)=O` [sauvagine], the “stimulation of ACTH and β-endorphin secretion / activities, in words” value in assay [2] is “stimulate the secretion of ACTH and β-endorphin”. For the same compound, the “lowering of blood pressure, in words” value in assay [3] was “lower blood pressure”. The “gastric acid production, in words” value in assay [4] is given as “inhibit gastric acid production”.

As to “oCRF: ovine corticotropin releasing factor, a 41-residue amidated peptide; the laboratory Standard (SQEPPISLDLTFHLLREVLEMTKADQLAQQAHSNRKLLDIA-NH2; UniProt P01142 148-188, looked up)”, the “stimulation of ACTH and β-endorphin secretion / activities, in words” value in assay [2] was “stimulate the secretion of ACTH and β-endorphin; also recorded: stimulate ACTH and β-endorphin-like activities (β-END-Li) in vitro and in vivo”. For the same compound, the “lowering of blood pressure, in words” value in assay [3] is on record as “substantially lower blood pressure”. In addition, in assay [4], the “gastric acid production, in words” value is recorded as “inhibit gastric acid production”.

For the compound “r/hCRF: rat/human CRF, a homologous amidated hentetracontapeptide; alternate standard (SEEPPISLDLTFHLLREVLEMARAEQLAQQAHSNRKLMEII-NH2; UniProt P06850 154-194, looked up)”, the “stimulation of ACTH and β-endorphin secretion / activities, in words” value in assay [2] is “stimulate ACTH and β-endorphin-like activities (β-END-Li) in vitro and in vivo”. In addition, in assay [3], the “lowering of blood pressure, in words” value is “substantially lower blood pressure”. Further, in assay [4], the “gastric acid production, in words” value is reported as “inhibit gastric acid production”.

Values taken from patent US5824771A, “Cyclic CRF agonists” (The Salk Institute for Biological Studies, priority 1997, dated 1998).
